Assay results: patent US6268533A, “Formoterol process” (Sepracor Inc., priority 2000, dated 2001)
Structures can show the parent of a compound that is named as a salt.

What was measured:
[1] = tested on: β2 -selective adrenoceptor; conditions: inhaled; background statement; cited from earlier work
[2] = stability of formoterol salts in the presence of lactose and water; format: physicochemical
From the text: Alternatively, if lactose is to be used, as described below, the dry powder must be packaged in such a manner as to exclude moisture.

[3] = moisture sorption of salts, water content by Karl Fischer titration; format: physicochemical; conditions: for water content (moisture sorption): room temperature; for moisture sorption compared with other salts or forms (in words): comparison of salts/polymorphs of R,R-formoterol
Description: Water absorption is a major problem in formulating a medicament for therapeutic use, and therefore a salt that has minimal water absorption offers significant advantages. In a series of experiments various salts of R,R-formoterol were prepared.
The salts were exposed to varying levels of humidity at room temperature for 1 to 28 days, and the samples were analyzed for water content by Karl Fischer titration. The values are given in % w/w.

guinea pig trachea = conditions: four isomers compared; cited from earlier work
β-adrenoceptors = conditions: four isomers, in vitro; cited from earlier work
[4] = thermal stability of crystal forms, loss on drying by TGA; format: physicochemical; conditions: for % LOD by TGA: held 15 min
Description: (§1) In each experiment, the polymorph was warmed from 30° C. to the designated temperature at 10° C./min and held at the designated temperature for 15 minutes. The loss on drying (LOD) was measured, and the appearance of the material was noted.

[5] = appearance of sample after TGA; format: physicochemical
Description: as §1, with “noted. […] The differences in appearance of each crystal form at the designated temperatures were consistent with the changes in LODs.” for “noted.”

[6] = total impurities of crystal forms after heating; format: physicochemical; conditions: for decomposition (total impurities study): 175° C.
From the text: The two crystal forms of (R,R)-formoterol tartrate were also studied by measuring the total impurities in the material from each of the experiments in Table 6.

[7] = 85% RH (printed RE for the fumarate)

COc1ccc(C[C@@H](C)NC[C@H](O)c2ccc(O)c(NC=O)c2)cc1 (relative stereo) [Formoterol, (+/-) N-[2-hydroxy-5-[1-hydroxy-2[[2-(p-methoxyphenyl)-2-propyl]amino]ethyl]phenyl]-formamide]
bronchodilating effect [1]: long lasting bronchodilating effect

COc1ccc(C[C@@H](C)NC[C@H](O)c2ccc(O)c(NC=O)c2)cc1 (relative stereo) [racemic (R,R/S,S) formoterol hemifumarate hydrate]
incompatibility with lactose on encountering moisture [2]: not observed

COc1ccc(C[C@@H](C)NC[C@H](O)c2ccc(O)c(NC=O)c2)cc1 [(R,R)-Formoterol-HCl]
water content (moisture sorption) ([3]; 11% relative humidity, day 1): 0.5735 % w/w
water content (moisture sorption) ([3]; 11% relative humidity, day 3): 0.553 % w/w
water content (moisture sorption) ([3]; 11% relative humidity, day 8): 0.3656 % w/w
water content (moisture sorption) ([3]; 11% relative humidity, day 14): 0.4385 % w/w
water content (moisture sorption) ([3]; 11% relative humidity, day 28): 0.2644 % w/w
water content (moisture sorption) ([3]; 43% relative humidity, day 1): 0.8502 % w/w
water content (moisture sorption) ([3]; 43% relative humidity, day 3): 1.1636 % w/w
water content (moisture sorption) ([3]; 43% relative humidity, day 8): 0.8781 % w/w
water content (moisture sorption) ([3]; 43% relative humidity, day 14): 0.9802 % w/w
water content (moisture sorption) ([3]; 43% relative humidity, day 28): 0.8133 % w/w
water absorbed ([3]; 75% RH): 1.3-1.4%
water content (moisture sorption) ([3]; 75% relative humidity, day 1): 1.5335 % w/w
water content (moisture sorption) ([3]; 75% relative humidity, day 3): 1.3288 % w/w
water content (moisture sorption) ([3]; 75% relative humidity, day 8): 1.4931 % w/w
water content (moisture sorption) ([3]; 75% relative humidity, day 14): 1.4585 % w/w
water content (moisture sorption) ([3]; 75% relative humidity, day 28): 1.221 % w/w
water content (moisture sorption) ([3]; 89% relative humidity, day 1): 1.4573 % w/w
water content (moisture sorption) ([3]; 89% relative humidity, day 3): 2.419 % w/w
water content (moisture sorption) ([3]; 89% relative humidity, day 8): 1.6487 % w/w
water content (moisture sorption) ([3]; 89% relative humidity, day 14): 1.5739 % w/w
water content (moisture sorption) ([3]; 89% relative humidity, day 28): 1.1139 % w/w
moisture sorption compared with other salts or forms (in words) ([3]; listed as hydrochloride): somewhat better at 43% RE

COc1ccc(C[C@@H](C)NC[C@H](O)c2ccc(O)c(NC=O)c2)cc1 [(R,R)-Formoterol-SO4]
water content (moisture sorption) ([3]; 11% relative humidity, day 1): 1.2251 % w/w
water content (moisture sorption) ([3]; 11% relative humidity, day 3): 1.3892 % w/w
water content (moisture sorption) ([3]; 11% relative humidity, day 8): 0.9574 % w/w
water content (moisture sorption) ([3]; 11% relative humidity, day 14): 1.209 % w/w
water content (moisture sorption) ([3]; 11% relative humidity, day 28): 0.7866 % w/w
water absorbed ([3]; 43% relative humidity): more than 3 % by weight
water content (moisture sorption) ([3]; 43% relative humidity, day 1): 2.9647 % w/w
water content (moisture sorption) ([3]; 43% relative humidity, day 3): 3.4998 % w/w
water content (moisture sorption) ([3]; 43% relative humidity, day 8): 3.4048 % w/w
water content (moisture sorption) ([3]; 43% relative humidity, day 14): 2.2985 % w/w
water content (moisture sorption) ([3]; 43% relative humidity, day 28): 3.1595 % w/w

COc1ccc(C[C@@H](C)NC[C@H](O)c2ccc(O)c(NC=O)c2)cc1 [(R,R)-isomer]
relaxing activity, rank of potency (guinea pig trachea): most potent
order of potency (β-adrenoceptors): (R,R)>>(R,S)=(S,R)>(S,S)

COc1ccc(C[C@H](C)NC[C@H](O)c2ccc(O)c(NC=O)c2)cc1 [(R,S), reference compound]
order of potency (β-adrenoceptors): (R,R)>>(R,S)=(S,R)>(S,S)

COc1ccc(C[C@@H](C)NC[C@@H](O)c2ccc(O)c(NC=O)c2)cc1 [(S,R), reference compound]
order of potency (β-adrenoceptors): (R,R)>>(R,S)=(S,R)>(S,S)

COc1ccc(C[C@H](C)NC[C@@H](O)c2ccc(O)c(NC=O)c2)cc1 [(S,S)]
order of potency (β-adrenoceptors): (R,R)>>(R,S)=(S,R)>(S,S)

COc1ccc(C[C@@H](C)NC[C@H](O)c2ccc(O)c(NC=O)c2)cc1 [D-tartrate]
water absorbed [3, 7]: 0.4-0.5%
moisture sorption compared with other salts or forms (in words) [3]: somewhat better than the hydrochloride

COc1ccc(C[C@@H](C)NC[C@H](O)c2ccc(O)c(NC=O)c2)cc1 [P1]
water absorbed ([3]; 85% RH for 11 days): less than 0.1%
moisture sorption compared with other salts or forms (in words) [3]: equivalent in moisture sorption
% LOD by TGA ([4]; 75° C.): 0.092%
% LOD by TGA ([4]; 100° C.): 0.065%
% LOD by TGA ([4]; 125° C.): 0.230%
% LOD by TGA ([4]; 150° C.): 0.390%
LOD in words ([4]; 175° C.): significant LODs, the result of decomposition
% LOD by TGA ([4]; 175° C.): 10.805%
appearance of sample after TGA ([5]; 75° C.): white
appearance of sample after TGA ([5]; 100° C.): white
appearance of sample after TGA ([5]; 125° C.): white
appearance of sample after TGA ([5]; 150° C.): off-white
appearance of sample after TGA ([5]; 175° C.): brown
decomposition (total impurities study) [6]: nearly completely decomposed

COc1ccc(C[C@@H](C)NC[C@H](O)c2ccc(O)c(NC=O)c2)cc1 [P2]
water absorbed ([3]; 85% RH for 11 days): less than 0.1%
moisture sorption compared with other salts or forms (in words) [3]: equivalent in moisture sorption
% LOD by TGA ([4]; 75° C.): 0.020%
% LOD by TGA ([4]; 100° C.): 0.045%
% LOD by TGA ([4]; 125° C.): 0.305%
% LOD by TGA ([4]; 150° C.): 1.230%
LOD in words ([4]; 175° C.): significant LODs, the result of decomposition
% LOD by TGA ([4]; 175° C.): 12.990%
appearance of sample after TGA ([5]; 75° C.): white
appearance of sample after TGA ([5]; 100° C.): white
appearance of sample after TGA ([5]; 125° C.): off-white
appearance of sample after TGA ([5]; 150° C.): tan
appearance of sample after TGA ([5]; 175° C.): brown
total impurities compared with P1 ([6]; 100° C. and higher): higher levels of total impurities
decomposition (total impurities study) [6]: nearly completely decomposed

COc1ccc(C[C@@H](C)NC[C@H](O)c2ccc(O)c(NC=O)c2)cc1 [R,R-formoterol L-tartrate]
hygroscopicity [3]: non-hygroscopic
water content (moisture sorption) ([3]; 11% relative humidity, day 1): 0.0956 % w/w
water content (moisture sorption) ([3]; 11% relative humidity, day 3): 0.1062 % w/w
water content (moisture sorption) ([3]; 11% relative humidity, day 8): 0.0842 % w/w
water content (moisture sorption) ([3]; 11% relative humidity, day 14): 0.1377 % w/w
water content (moisture sorption) ([3]; 11% relative humidity, day 28): 0.0871 % w/w
water content (moisture sorption) ([3]; 43% relative humidity, day 1): 0.1091 % w/w
water content (moisture sorption) ([3]; 43% relative humidity, day 3): 0.1406 % w/w
water content (moisture sorption) ([3]; 43% relative humidity, day 8): 0.0922 % w/w
water content (moisture sorption) ([3]; 43% relative humidity, day 14): 0.104 % w/w
water content (moisture sorption) ([3]; 43% relative humidity, day 28): 0.0705 % w/w
water content (moisture sorption) ([3]; 75% relative humidity, day 1): 0.0895 % w/w
water content (moisture sorption) ([3]; 75% relative humidity, day 3): 0.1367 % w/w
water content (moisture sorption) ([3]; 75% relative humidity, day 8): 0.0732 % w/w
water content (moisture sorption) ([3]; 75% relative humidity, day 14): 0.1146 % w/w
water content (moisture sorption) ([3]; 75% relative humidity, day 28): 0.0691 % w/w
water absorbed ([3]; 89% RH): 0.10 to 0.13%
water content (moisture sorption) ([3]; 89% relative humidity, day 1): 0.1144 % w/w
water content (moisture sorption) ([3]; 89% relative humidity, day 3): 0.1379 % w/w
water content (moisture sorption) ([3]; 89% relative humidity, day 8): 0.1104 % w/w
water content (moisture sorption) ([3]; 89% relative humidity, day 14): 0.1097 % w/w
water content (moisture sorption) ([3]; 89% relative humidity, day 28): 0.1122 % w/w
water content (moisture sorption) ([3]; 93% relative humidity, day 1): 0.1346 % w/w
water content (moisture sorption) ([3]; 93% relative humidity, day 3): 0.2077 % w/w
water content (moisture sorption) ([3]; 93% relative humidity, day 8): 0.1076 % w/w
water content (moisture sorption) ([3]; 93% relative humidity, day 14): 0.2972 % w/w
water content (moisture sorption) ([3]; 93% relative humidity, day 28): 0.1765 % w/w
moisture sorption compared with other salts or forms (in words) ([3]; listed as L-tartrate of R,R-formoterol): superior to all of the salts tested

COc1ccc(C[C@@H](C)NC[C@H](O)c2ccc(O)c(NC=O)c2)cc1 [fumarate]
water absorbed [3, 7]: 6%
moisture sorption compared with other salts or forms (in words) [3]: somewhat better at 43% RE
